Measured values from patent publication US6228345A, “In vivo assay for intravasation” (Mount Sinai School of Medicine of New York University, priority 1999, dated 2001).
pIC50: −log10 of the molar value.

Tests used:
HEp3 cells = test: Intravasation assay: chick embryo CAM with Alu-PCR of lower CAM; format: in vivo, human
MMP-9 = test: Gelatin gel zymography of HEp3 conditioned medium, MMP-9; format: biochemical, human; conditions: 80 nM
Procedure: (§1) FIG. 10. […] Serum-free conditioned medium of HEp3 cells was collected and electrophoresed on PAGE by loading 10 μl into each of five wells. The gel was sliced to include one sample per slice and each slice was incubated with marimastat at the indicated concentrations (0-1.6 μM) and the gels were incubated only for 22 hr.
(§2) Ten μl aliquots of conditioned media were electrophoresed at 4° C. on 8% PAGE containing 0.1% gelatin, the gel washed in 2.5% Triton X-100 for 30 min, rinsed in water, and incubated for 40 hrs at 37° C. in buffer containing 50 mM Tris pH 7.7, 5 mM CaCl2, and 0.02% NaN3. To test for inhibition of MMPs by BB2516, HEp3 cell conditioned medium was electrophoresed in quadruplicate. The gel was cut into 4 fragments each containing one sample (lane) and incubated separately as above except that marimastat was added in increasing concentration to the incubation buffer. All gels were stained with Coomassie blue, de-stained and dried between dialysis sheets.

MMP-1 = test: Gelatin gel zymography of HEp3 conditioned medium, MMP-1; format: biochemical, human; conditions: 80 nM
Procedure: as §1, §2

MMP-2 = test: Gelatin gel zymography of HEp3 conditioned medium, MMP-2; format: biochemical, human; conditions: 1.6 μM, highest concentration tested
Procedure: as §1, §2

[1] = system: MMP-1, MMP-2, MMP-3, MMP-7 and MMP-9; conditions: one range printed for MMP-1, MMP-2, MMP-3, MMP-7 and MMP-9 together; cited from earlier work

CNC(=O)[C@@H](NC(=O)[C@H](CC(C)C)[C@H](O)C(=O)NO)C(C)(C)C [marimastat]
inhibition of intravasation (HEp3 cells; 200 μM inhibitor, compared with 100 μM): less effective
inhibition of intravasation (HEp3 cells; final concentration of 50 nM, separate experiment): more than 60%
inhibition of MMP-9 activity (zymogram) (MMP-9): block most
inhibition of MMP-1 activity (zymogram) (MMP-1): all of the MMP-1 activity
inhibition of MMP-2 activity (zymogram) (MMP-2): residual lysis zone
inhibition of MMP-2 activity (zymogram) (MMP-2; listed as Marimastat): not completely inhibited
